The text below walks through data of patent US6489331B1, “Remedies for diabetes” (Kyowa Hakko Kogyo Co., Ltd., priority 1998, dated 2002).

Counter-ions that a name gives are not always drawn.

One series concerns MIN6 cell. Description: Insulin secretion enhancing action in cultured β-cell (MIN6). It counts as cell-based. Conditions: for Amount of secreted insulin (ng/ml) avg: in the presence of 14.5 mM glucose; for insulin secretion enhancing action at low glucose: low glucose concentration (5 mM), controls for comparison. The method, then:
Culture of the MIN6 cells and insulin secretion test utilizing the MIN6 cells were performed basically according to the methods described in literature (Ishihara et al., Diabetologia, vol. 36, pp.1139-1145, 1993). The effect of a compound on the insulin secretion in the presence of 14.5 mM glucose was determined by measuring insulin amounts in cell culture supernatants collected as follows. MIN6 cells cultured on a 24-well plate were washed twice by using 1 ml of Buffer A (119 mM sodium chloride, 4.74 mM potassium chloride, 2.54 mM calcium chloride, 1.19 mM magnesium sulfate, 1.19 mM potassium dihydrogenphosphate, 10 mM 2-[4-(2-hydroxyethyl)-1-piperazinyl]ethanesulfonic acid, 0.1% bovine serum albumin, pH 7.3) containing 2 mM glucose, and then were incubated in 1 ml of Buffer A containing 2 mM glucose at 37° C. for 45 minutes. After the incubation, the culture supernatant was changed to Buffer A (0.9 ml) containing a test compound at various concentrations and 2 mM glucose, and the cells were further incubated at 37° C. for 15 minutes. The MIN6 cells were stimulated with glucose by the addition of Buffer A (0.1 ml) containing 127 mM glucose to the culture (final glucose concentration: 14.5 mM). After the stimulation, the cells were further incubated at 37° C. for 45 minutes, and then the culture supernatant was collected.
Separately, the effect of a compound on the insulin secretion in the presence of 5 mM glucose was determined by measuring insulin amounts in cell culture supernatants collected as follows. MIN6 cells cultured on a 24-well plate were washed twice by using 1 ml of Buffer A containing 5 mM glucose, and then the culture supernatant was changed to Buffer A (0.9 ml) containing a test compound at various concentrations and 5 mM glucose. Then, the cells were incubated at 37° C. for 45 minutes (final glucose concentration: 5 mM), and the culture supernatant was collected.
After the culture supernatant was diluted with a phosphate buffer containing 1% bovine serum albumin, 0.1% Tween 20, 0.12% disodium ethylenediaminetetraacetate and 0.1% sodium azide, antibody-reactive insulin secreted in the culture supernatant was quantified by enzyme immunoassay or radio immunoassay. […] The results are indicated as averages (avg) for 3 to 4 samples with standard error values (se).

Turning to `CCCN1C(=O)N2C[C@H](C(C)C)N=C2c2[nH]c(C3CCCC3)nc21.Cl`, the melting point (in general, the temperature, or range, at which the solid turns liquid) lay in the range of 109 to 112 °C.

The molecule `CCCCC1CN2C(=O)N(CCC)c3nc(C4CCCC4)[nH]c3C2=N1.Cl` (stereo not drawn) yielded a melting point of 146 to 148 °C.

`CCCN1C(=O)N2CC(Cc3ccc([N+](=O)[O-])cc3)N=C2c2[nH]c(C3CCCC3)nc21.Cl` (stereo not drawn) registered a melting point of 215 to 217 °C.

In turn, `CCCN1C(=O)N2C[C@@H](Cc3ccccc3)N=C2c2c1ncn2Cc1ccccc1.Cl` returned a melting point of 198 to 200 °C.

Consider `CCCc1nc2c([nH]1)C1=NC(Cc3ccc(Cl)cc3)CN1C(=O)N2CCC.Cl` (stereo not drawn), for which the melting point lay in the range of 191 to 192 °C.

Regarding `CCCN1C(=O)N2CC(Cc3ccc(Cl)cc3)N=C2c2[nH]c(C3CCC3)nc21.Cl` (stereo not drawn), the melting point fell in the range of 214 to 215 °C.

Turning to `CCCc1nc2c([nH]1)C1=NC(Cc3ccc(F)cc3)CN1C(=O)N2CCC.Cl` (stereo not drawn), the melting point is 199 to 200 °C.

As to `CCCCc1nc2c([nH]1)C1=NC(Cc3ccc(F)cc3)CN1C(=O)N2CCC.Cl` (stereo not drawn), the melting point is 193 to 196 °C.

For the molecule `CCCc1nc2c([nH]1)C1=NC(Cc3cccc(F)c3)CN1C(=O)N2CCC.Cl` (stereo not drawn), the melting point fell in the range of 139 to 140 °C.

As for `CCCN1C(=O)N2CC(Cc3cccc(F)c3)N=C2c2[nH]c(C3CCC3)nc21.Cl` (stereo not drawn), the melting point was 164 to 165 °C.

The molecule `CCCN1C(=O)N2CC(Cc3cccc(F)c3)N=C2c2[nH]c(CC(C)C)nc21` (stereo not drawn) showed a melting point of 186 to 187 °C.

Turning to `CCCN1C(=O)N2C[C@@H](C)N=C2c2[nH]c(C3CCCC3)nc21.Cl`, the melting point fell in the range of 218 to 219 °C.

`CCCN1C(=O)N2CC(Cc3ccccc3F)N=C2c2[nH]c(CC(C)C)nc21` (stereo not drawn): the melting point was in the range of 159 to 160 °C.

For `CCCN1C(=O)N2C[C@H](C(C)C)N=C2c2[nH]c(C(C)C)nc21.Cl`, the melting point fell in the range of 156 to 157 °C.

`CCCN1C(=O)N2C[C@@H](C(C)C)N=C2c2[nH]c(C3CCCC3)nc21.Cl` showed a melting point of 116 to 118 °C.

On to `CCCN1C(=O)N2CC(Cc3ccc(F)cc3)N=C2c2[nH]c(C3CCCC3)nc21` (stereo not drawn) (as salt: hydrochloride) [Compound 18, 2-cyclopentyl-8-(4-fluorobenzyl)-7,8-dihydro-4-propyl-1H-imidazo[2,1-i]purin-5(4H)-one hydrochloride], for which the melting point fell in the range of 226 to 228 °C.

On to `CCCN1C(=O)N2CC(Cc3ccc(Cl)cc3)N=C2c2[nH]c(C3CCCC3)nc21` (stereo not drawn) (as salt: hydrochloride) [Compound 20, 8-(4-chlorobenzyl)-2-cyclopentyl-7,8-dihydro-4-propyl-1H-imidazo[2,1-i]purin-5(4H)-one hydrochloride], for which the melting point is 222 to 224 °C.

Regarding `CCCN1C(=O)N2CC(Cc3ccc(Br)cc3)N=C2c2[nH]c(C3CCCC3)nc21` (stereo not drawn) (as salt: hydrochloride) [Compound 23, 8-(4-bromobenzyl)-2-cyclopentyl-7,8-dihydro-4-propyl-1H-imidazo[2,1-i]purin-5(4H)-one hydrochloride], the melting point is 184 to 186 °C.

The molecule `CCCN1C(=O)N2CC(CCc3ccccc3)N=C2c2[nH]c(C3CCCC3)nc21` (stereo not drawn) (as salt: hydrochloride) [Compound 31, 2-cyclopentyl-7,8-dihydro-8-phenethyl-4-propyl-1H-imidazo[2,1-i]purin-5(4H)-one hydrochloride] showed a melting point of 171 to 173 °C.

On to `CCCc1nc2c([nH]1)C1=N[C@H](Cc3ccccc3)CN1C(=O)N2CCC` (as salt: hydrochloride) [Compound 35, (R)-8-benzyl-7,8-dihydro-2,4-dipropyl-1H-imidazo[2,1-i]purin-5(4H)-one hydrochloride], for which the melting point lay in the range of 195 to 197 °C.

In turn, `CCCN1C(=O)N2C[C@@H](Cc3ccccc3)N=C2c2[nH]c(C3CCC3)nc21` (as salt: hydrochloride) [Compound 37, (R)-8-benzyl-2-cyclobutyl-7,8-dihydro-4-propyl-1H-imidazo[2,1-i]purin-5(4H)-one hydrochloride] yielded a melting point of 214 to 216 °C.

With `CCCN1C(=O)N2C[C@@H](Cc3ccccc3)N=C2c2[nH]c(C(C)(C)C)nc21` (as salt: hydrochloride) [Compound 43, (R)-8-benzyl-2-tert-butyl-7,8-dihydro-4-propyl-1H-imidazo[2,1-i]purin-5(4H)-one hydrochloride], the melting point lay in the range of 220 to 222 °C.

For `CCCN1C(=O)N2CC(Cc3ccc(F)cc3)N=C2c2[nH]c(C3CCCCC3)nc21` (stereo not drawn) (as salt: hydrochloride) [Compound 50, 2-cyclohexyl-8-(4-fluorobenzyl)-7,8-dihydro-4-propyl-1H-imidazo[2,1-i]purin-5(4H)-one hydrochloride], the melting point lay within 237 to 239 °C.

For the molecule `CCCN1C(=O)N2CC(Cc3cc(Cl)ccc3Cl)N=C2c2[nH]c(C3CCCC3)nc21` (stereo not drawn) (as salt: hydrochloride) [Compound 65, 2-cyclopentyl-8-(2,5-dichlorobenzyl)-7,8-dihydro-4-propyl-1H-imidazo[2,1-i]purin-5(4H)-one hydrochloride], the melting point was 172 to 173 °C.

With `CC(C)[C@H]1CC[C@H](C(=O)N[C@H](Cc2ccccc2)C(=O)O)CC1` [AY4166, AY-4166, reference compound], the “Amount of secreted insulin (ng/ml) avg” value in the series on MIN6 cell (drug concentration 1.0 μM) is 195.1 ng/mL. For the same molecule, in the series with MIN6 cell, the “insulin secretion enhancing action at low glucose” value is listed as “showed marked secretion enhancing action”.

Molecule `CCCN1C(=O)N2C[C@H](C(C)(C)C)N=C2c2[nH]c(C3CCCC3)nc21.Cl` [Compound 12, (S)-8-tert-butyl-2-cyclopentyl-7,8-dihydro-4-propyl-1H-imidazo[2,1-i]purin-5(4H)-one hydrochloride] had a melting point of 184 to 186 °C. In the series on MIN6 cell (drug concentration 1.0 μM), the “Amount of secreted insulin (ng/ml) avg” value came out at 227.8 ng/mL.

With `CCCN1C(=O)N2CC(Cc3ccc(F)cc3)N=C2c2[nH]c(C3CCCC3)nc21` (stereo not drawn) [Compound 18, 2-cyclopentyl-8-(4-fluorobenzyl)-7,8-dihydro-4-propyl-1H-imidazo[2,1-i]purin-5(4H)-one hydrochloride], the “Amount of secreted insulin (ng/ml) avg” value in the series with MIN6 cell (drug concentration 1.0 μM) was determined as 181.9 ng/mL.

For `CCCN1C(=O)N2CC(Cc3ccc(Cl)cc3)N=C2c2[nH]c(C3CCCC3)nc21` (stereo not drawn) [Compound 20, 8-(4-chlorobenzyl)-2-cyclopentyl-7,8-dihydro-4-propyl-1H-imidazo[2,1-i]purin-5(4H)-one hydrochloride], the “Amount of secreted insulin (ng/ml) avg” value in the series on MIN6 cell (drug concentration 1.0 μM) came out at 235.9 ng/mL.

On to `CCCN1C(=O)N2C[C@@H](Cc3ccccc3)N=C2c2[nH]c(C3CCC3)nc21` [Compound 37, (R)-8-benzyl-2-cyclobutyl-7,8-dihydro-4-propyl-1H-imidazo[2,1-i]purin-5(4H)-one hydrochloride], for which the “Amount of secreted insulin (ng/ml) avg” value with MIN6 cell (drug concentration 1.0 μM) was 202.8 ng/mL.

In the case of `CCCN1C(=O)N2C[C@@H](Cc3ccccc3)N=C2c2[nH]c(C(C)(C)C)nc21` [Compound 43, (R)-8-benzyl-2-tert-butyl-7,8-dihydro-4-propyl-1H-imidazo[2,1-i]purin-5(4H)-one hydrochloride], in the series with MIN6 cell (drug concentration 1.0 μM), the “Amount of secreted insulin (ng/ml) avg” value came out at 199.1 ng/mL.

Turning to `CCCN1C(=O)N2CC(Cc3ccc(F)cc3)N=C2c2[nH]c(C3CCCCC3)nc21` (stereo not drawn) [Compound 50, 2-cyclohexyl-8-(4-fluorobenzyl)-7,8-dihydro-4-propyl-1H-imidazo[2,1-i]purin-5(4H)-one hydrochloride], the “Amount of secreted insulin (ng/ml) avg” value in the series with MIN6 cell (drug concentration 1.0 μM) came to 209.5 ng/mL.

`CCCN1C(=O)N2C[C@@H](Cc3ccc(F)cc3)N=C2c2[nH]c(-c3ccoc3)nc21` [Compound 54, (R)-8-(4-fluorobenzyl)-2-(3-furyl)-7,8-dihydro-4-propyl-1H-imidazo[2,1-i]purin-5(4H)-one] gave a melting point of 149 to 150 °C. Moreover, the “Amount of secreted insulin (ng/ml) avg” value with MIN6 cell (drug concentration 1.0 μM) worked out at 216.1 ng/mL.

Regarding `CCCN1C(=O)N2CC(Cc3cc(Cl)ccc3Cl)N=C2c2[nH]c(C3CCCC3)nc21` (stereo not drawn) [Compound 65, 2-cyclopentyl-8-(2,5-dichlorobenzyl)-7,8-dihydro-4-propyl-1H-imidazo[2,1-i]purin-5(4H)-one hydrochloride], in the series with MIN6 cell (drug concentration 1.0 μM), the “Amount of secreted insulin (ng/ml) avg” value came out at 207.8 ng/mL.

Molecule `CCCN1C(=O)N2C[C@H](C(C)(C)C)N=C2c2[nH]c(-c3ccoc3)nc21` [Compound 67, (S)-8-tert-butyl-2-(3-furyl)-7,8-dihydro-4-propyl-1H-imidazo[2,1-i]purin-5(4H)-one] returned a melting point of 204 to 206 °C.

For the molecule `COc1ccc(Cl)cc1C(=O)NCCc1ccc(S(=O)(=O)NC(=O)NC2CCCCC2)cc1` [Glibenclamide, reference compound], in the series with MIN6 cell (drug concentration 0.1 μM), the “Amount of secreted insulin (ng/ml) avg” value stood at 177.8 ng/mL. Moreover, the “insulin secretion enhancing action at low glucose” value with MIN6 cell was “showed marked secretion enhancing action”.
